The text below walks through data of patent US20210145000A1, “WEED CONTROL FROM APPLICATIONS OF PYRIDINE CARBOXYLIC ACID HERBICIDES AND ACETYL CoA CARBOXYLASE (ACCase) INHIBITORS” (Dow AgroSciences LLC, priority 2018, published 2021).

What all share (test): Postemergence herbicidal activity, greenhouse, visual injury
Common to all, as to type: in vivo

The test system of assay [1] is chickweed (Stellaria media, STEME). Conditions: post-emergence, read-out: Effect (% visual injury) Obs. As for the experimental part:
(§1) Seeds of the desired test plant species were planted in Sun Gro MetroMix® 306 planting mixture, which typically has a pH of 6.0 to 6.8 and an organic matter content of about 30 percent, in plastic pots with a surface area of 103.2 square centimeters (cm^2). When required to ensure good germination and healthy plants, a fungicide treatment and/or other chemical or physical treatment was applied. The plants were grown for 7-36 days (d) in a greenhouse with an approximate 14-hour (h) photoperiod which was maintained at about 23° C. during the day and 22° C. during the night. Nutrients and water were added on a regular basis and supplemental lighting was provided with overhead metal halide 1000-Watt lamps as necessary. The plants were employed for testing when they reached the second or third true leaf stage.
(§2) An emulsifiable concentrate (EC) formulation containing Compound 1 at 100 gai/L was prepared by combining Compound 1 with 1-butyl-2-pyrrolidinone (Tamisolve NxG; 360.5 g/L), benzyl acetate (544.6 g/L) and Agnique MBL 520L surfactant (52.9 g/L). […] The concentrated stock solution was diluted with an aqueous mixture of 1.5% v/v of Agri-dex crop oil concentrate to provide the appropriate application rates. Compound requirements are based upon a 12 milliliter (mL) application volume at a rate of 187 liters per hectare (L/ha). Spray solutions of the experimental compound mixtures were prepared by adding the stock solutions to the appropriate amount of dilution solution to form a 12 mL spray solution in two-way combinations. Formulated compounds were applied to the plant material with an overhead Mandel track sprayer equipped with 8002E nozzles calibrated to deliver 187 L/ha over an application area of 0.503 square meters (m^2) at a spray height of 18 inches (43 centimeters (cm)) above average plant canopy. Control plants were sprayed in the same manner with the solvent blank. Application rates for component (a) are in g ae/ha, and application rates for component (b) are in g ai/ha.
(§3) The treated plants and control plants were placed in a greenhouse as described above and watered by sub-irrigation to prevent wash-off of the test compounds. After 20-22 d, the condition of the test plants as compared with that of the control plants was determined visually and scored on a scale of 0 to 100 percent where 0 corresponds to no injury and 100 corresponds to complete kill. […] The Colby method was used to determine the herbicidal effects expected from the mixtures.

In assay [2] the test system is barnyardgrass (Echinochloa crus-galli, ECHCG). Conditions: post-emergence, read-out: Effect (% visual injury) Obs. How it is done: (§4) The plants were grown for 7-36 days (d) in a greenhouse with an approximate 14-hour (h) photoperiod which was maintained at about 23° C. during the day and 22° C. during the night. Nutrients and water were added on a regular basis and supplemental lighting was provided with overhead metal halide 1000-Watt lamps as necessary. The plants were employed for testing when they reached the second or third true leaf stage.
(§5) Spray solutions of the experimental compound mixtures were prepared by adding the stock solutions to the appropriate amount of dilution solution to form a 12 mL spray solution in two-way combinations. […] Control plants were sprayed in the same manner with the solvent blank. Application rates for component (a) are in g ae/ha, and application rates for component (b) are in g ai/ha.
as §3

Assay [3] relates to wild buckwheat (Polygonum convolvulus, POLCO). Conditions: Fallopia convolvulus, post-emergence, read-out: Effect (% visual injury) Obs. How it is done: as §4, §5, §3
The subject of assay [4] is wild pansy (Viola tricolor, VIOTR). Conditions: post-emergence, read-out: Effect (% visual injury) Obs. As for the experimental part: as §4, §5, §3
For assay [5], the system named is maize (Zea mays, ZEAMX). Conditions: post-emergence, read-out: Effect (% visual injury) Obs. How it is done:
as §4, §5, §3

Assay [6] concerns giant foxtail (Setaria faberi, SETFA). Conditions: post-emergence, read-out: Effect (% visual injury) Obs. How it is done:
as §4, §5, §3

Assay [7] relates to pigweed (Amaranthus retroflexus, AMARE). Conditions: post-emergence, read-out: Effect (% visual injury) Obs. How it is done:
as §4, §5, §3

In assay [8] the test system is velvetleaf (Abutilon theophrasti, ABUTH). Conditions: post-emergence, read-out: Effect (% visual injury) Obs. How it is done:
as §4, §5, §3

Assay [9] relates to rice (Oryza sativa, ORYSA). Conditions: post-emergence, read-out: Effect (% visual injury) Obs. How it is done:
as §4, §5, §3

In assay [10] the test system is winter wheat (Triticum aestivum, TRZAW). Conditions: post-emergence, read-out: Effect (% visual injury) Obs. As for the experimental part:
as §4, §5, §3

Assay [11] concerns grain sorghum (Sorghum vulgare, SORVU). Conditions: post-emergence, read-out: Effect (% visual injury) Obs. As for the experimental part:
as §4, §5, §3

In assay [12] the test system is large crabgrass (Digitaria sanguinalis, DIGSA). Conditions: post-emergence, read-out: Effect (% visual injury) Obs. As for the experimental part: as §4, §5, §3
Assay [13] concerns common lambsquarters (Chenopodium album L., CHEAL). Conditions: post-emergence, read-out: Effect (% visual injury) Obs. How it is done: as §4, §5, §3
In assay [14] the test system is wild oat (Avena fatua, AVEFA). Conditions: post-emergence, read-out: Effect (% visual injury) Obs. As for the experimental part: as §4, §5, §3
Assay [15] has as its system sunflower (Helianthus annuus, HELAN). Conditions: post-emergence, read-out: Effect (% visual injury) Obs. How it is done: as §4, §5, §3
In assay [16] the test system is soybean (Glycine max, GLXMA). Conditions: post-emergence, read-out: Effect (% visual injury) Obs. As for the experimental part:
as §4, §5, §3

The test system of assay [17] is winter rape (Brassica napus, BRSNW). Conditions: post-emergence, read-out: Effect (% visual injury) Obs. How it is done: as §1, §2, §3
The subject of assay [18] is blackgrass (Alopecurus myosuroides, ALOMY). Conditions: post-emergence, read-out: Effect (% visual injury) Obs. How it is done: as §4, §5, §3
The test system of assay [19] is poinsettia (Euphorbia heterophylla, EPHHL). How it is done:
as §1, §2, §3

Regarding `CCc1cc(C)cc(CC)c1-c1c(OC(=O)C(C)(C)C)n2n(c1=O)CCOCC2` [Pinoxaden], the pest or weed control at 30 g/ha in [1] (Pinoxaden 30 g ai/ha) came to 0%. Also, the pest or weed control worked out at 100% in assay [2] (Pinoxaden 30 g ai/ha); 0% in assay [3] (Pinoxaden 30 g ai/ha); 0% in assay [4] (Pinoxaden 30 g ai/ha); 0% in [6] (Pinoxaden 30 g ai/ha); 0% in assay [7] (Pinoxaden 30 g ai/ha); 0% in assay [8] (Pinoxaden 30 g ai/ha). The pest or weed control was 10% in assay [12] (Pinoxaden 30 g ai/ha), 0% in assay [13] (Pinoxaden 30 g ai/ha) and 95% in [14] (Pinoxaden 30 g ai/ha). Besides, the plant injury in assay [5] (Pinoxaden 30 g ai/ha) is 10%; in assay [9] (Pinoxaden 30 g ai/ha) it was 99%; in assay [10] (Pinoxaden 30 g ai/ha), 0%; in assay [11] (Pinoxaden 30 g ai/ha), 100%; in assay [15] (Pinoxaden 30 g ai/ha), 0%; in assay [16] (Pinoxaden 30 g ai/ha), 0%.
As for `COC(=O)C(C)Oc1ccc(Oc2ccc(Cl)cc2Cl)cc1` (stereo not shown) [Diclofop-methyl], the pest or weed control at 280 g/ha in [1] worked out at 0%; in assay [2], 100%; in [3] it was 0%; in assay [4] it was 0%; in [6], 60%; in assay [7], 0%. For the same molecule, the pest or weed control at 280 g/ha in assay [8] and in [13] was 0% in each case. Moreover, the plant injury at 280 g/ha in assay [17] came to 0%; in [9], 40%; in assay [10], 0%; in assay [15], 0%.
As for `CCOC(=O)[C@@H](C)Oc1ccc(Oc2cnc3cc(Cl)ccc3n2)cc1` [Quizalofop-P-ethyl], the pest or weed control at 75 g/ha in [2] turned out to be 100%; in [3], 0%; in assay [4], 0%; in [6], 100%; in [7], 0%; in [8] it was 0%. In addition, the pest or weed control at 75 g/ha stood at 100% in assay [12], 0% in assay [13], 98% in assay [14] and 100% in [18]. Besides, the plant injury at 75 g/ha in [5] stood at 100%; in [9], 100%; in assay [10], 99%; in assay [11], 100%; in assay [15], 0%; in [16] it was 0%.
As for `COC(=O)[C@@H](C)Oc1ccc(Oc2ncc(C(F)(F)F)cc2Cl)cc1` [Haloxyfop-P-methyl], the pest or weed control at 70 g/ha was determined as 0% in [1]; 100% in assay [2]; 0% in assay [3]; 0% in assay [4]; 0% in [7]; 0% in assay [8]. Besides, the pest or weed control at 70 g/ha was 100% in [12], 0% in assay [13] and 97% in assay [18]. The “Effect (% visual injury) Obs” value in [19] (Haloxyfop-P-methyl 70 g ai/ha) is 0%. Further, the plant injury at 70 g/ha was 0% in assay [17]; 100% in assay [5]; 100% in assay [9]; 100% in [10]; 100% in assay [11]; 0% in assay [15]. Further, in assay [16], the plant injury at 70 g/ha worked out at 0%.
For the molecule `CCOC(=O)[C@@H](C)Oc1ccc(Oc2nc3ccc(Cl)cc3o2)cc1` [Fenoxaprop-P-ethyl], the plant injury at 46 g/ha worked out at 0% in assay [17] (Fenoxaprop-P-ethyl 46 g ai/ha), 100% in assay [5] (Fenoxaprop-P-ethyl 46 g ai/ha), 0% in [10] (Fenoxaprop-P-ethyl 46 g ai/ha) and 0% in assay [15] (Fenoxaprop-P-ethyl 46 g ai/ha). Further, the pest or weed control at 46 g/ha is 100% in assay [2] (Fenoxaprop-P-ethyl 46 g ai/ha); 0% in assay [3] (Fenoxaprop-P-ethyl 46 g ai/ha); 0% in assay [4] (Fenoxaprop-P-ethyl 46 g ai/ha); 100% in assay [6] (Fenoxaprop-P-ethyl 46 g ai/ha); 0% in [8] (Fenoxaprop-P-ethyl 46 g ai/ha); 100% in assay [12] (Fenoxaprop-P-ethyl 46 g ai/ha). Moreover, the pest or weed control at 46 g/ha amounted to 0% in assay [13] (Fenoxaprop-P-ethyl 46 g ai/ha), 95% in assay [14] (Fenoxaprop-P-ethyl 46 g ai/ha) and 0% in [18] (Fenoxaprop-P-ethyl 46 g ai/ha).
`CCCCOC(=O)[C@@H](C)Oc1ccc(Oc2ccc(C(F)(F)F)cn2)cc1` [Fluazifop-butyl]: the pest or weed control at 105 g/ha in [1] was 0%; in assay [2], 100%; in assay [3] it was 0%; in assay [4] it was 0%; in [6], 97%; in assay [7] it was 0%. Moreover, the pest or weed control at 105 g/ha was 0% in assay [8], 95% in assay [12], 95% in assay [14] and 20% in assay [18]. Besides, the “Effect (% visual injury) Obs” value in assay [19] (Fluazifop-butyl 105 g ai/ha) is given as 0%. The plant injury at 105 g/ha in [17] was found to be 0%; in assay [5], 100%; in assay [9], 85%; in assay [10], 90%.
Consider `CCCCOC(=O)[C@@H](C)Oc1ccc(Oc2ccc(C#N)cc2F)cc1` [Cyhalofop-butyl], for which the plant injury at 180 g/ha came out at 0% in [17]; 95% in assay [5]; 0% in [9]; 0% in [10]; 95% in assay [11]; 0% in [15]. For the same molecule, the pest or weed control at 180 g/ha in assay [2] is 100%; in assay [3], 0%; in assay [4], 0%; in assay [6], 90%; in assay [7], 0%; in assay [8], 0%. The figures for the pest or weed control at 180 g/ha in [12] and in [14] were 85% and 90%, respectively.
